In ChEMBL document CHEMBL1155571, “Pelorol from the tropical marine sponge Dactylospongia elegans” (J Nat Prod, 2000):
≈ marks a conversion by molar mass, not a printed value.

Columns and labels:
Plasmodium falciparum [1] = assay: Antiplasmodial activity against Plasmodium falciparum K1; assay type: functional, organism-based
Plasmodium falciparum [2] = assay: Antiplasmodial activity against Plasmodium falciparum NF54; assay type: functional, organism-based
[3] = test system: Trypanosoma brucei rhodesiense; assay: Antitrypanosomal activity against Trypanosoma rhodesiense; assay type: functional, organism-based
tyrosine kinase = assay: Inhibition of tyrosine kinase at 1 ug/uL

inhibition (tyrosine kinase)	Structure (SMILES)	IC50 (Plasmodium falciparum [1])	IC50 (Plasmodium falciparum [2])	IC50 [3]
–	C[C@@H]1CC[C@H]2[C@@H](C)C(=O)O[C@@H]3O[C@@]4(C)CC[C@@H]1[C@]32OO4 [ARTEMISININ]	0.0014 µg/mL (≈ 0.00496 µM)	0.0025 µg/mL (≈ 0.00885 µM)	–
87%	C=C1CCC[C@H]2[C@](C)(CC3=C(O)C(=O)C=C(OC)C3=O)[C@@H](C)CC[C@]12C [ILIMAQUINONE]	1.74 µg/mL (≈ 4.86 µM)	0.949 µg/mL (≈ 2.65 µM)	7.7 µg/mL (≈ 21.5 µM)
–	COC(=O)c1cc(O)c(O)c2c1[C@]1(C)CC[C@H]3C(C)(C)CCC[C@]3(C)[C@H]1C2 [PELOROL]	0.786 µg/mL (≈ 2.11 µM)	1.91 µg/mL (≈ 5.13 µM)	17.4 µg/mL (≈ 46.7 µM)
